Where two headings read alike, the source gives them in different places. Blank lines part the entries; values can stand above or below the molecule they belong to. No end group written: not given here.
How the values were obtained:
[1] = target: T1, HLA-A1 (Homo sapiens, UniProt P04439, A114D/A174V/A182V/D101N/D185E/E176A/E190D/L180R/Q94H/R68K/S129P/T187R/V100A/V91M/W191G); experiment: Assembly assay, HLA-A1; assay type: binding; conditions: for EC50: Table 4, HLA-A1, read-out: C50
T1 construct: empty HLA molecules released upon cell lysis, from the TAP-deficient cell lines; endogenous in cells; host or cells: BM36.1 (TAP-defective cell line expressing HLA-A*0101 and HLA-B*3501)
Experimental: (§1) The binding affinity of synthetic peptides (Invitrogen, Carlsbad, Calif., USA) to HLA-A1, -A2, A3, or -A11 molecules metabolically labeled with [^35S]-methionine was measured in the assembly assay, as described previously (12). The assay is based on peptide-mediated stabilization of empty HLA molecules released upon cell lysis, from the TAP-deficient cell lines. Stably folded HLA-molecules were immune-precipitated using the HLA class I-specific, conformation-dependent mAb W6/32, and separated by isoelectric focusing (IEF) gel electrophoresis. MHC heavy chain bands were quantified using the ImageGauge Phosphorimager program (FUJI photo film Co., Carrollton, Tex., USA). The intensity of the band is proportional to the amount of peptide-bound class I MHC complex recovered during the assay. Subsequently, the extent of stabilization of the HLA-molecule is directly related to the binding affinity of the added peptide. The peptide concentration used to analyze the recovery of the HLA-molecules was 40, 4, 0.4, 0.04 μM for HLA-A1 and HLA-A11, and 100, 10, 1, 0.1, 0.01 μM for HLA-A2 and HLA-A3. The C50 value was subsequently calculated for each peptide as the peptide concentration sufficient for half maximal stabilization.

[2] = system: peptide epitope-specific interferon-γ releasing effector cells; experiment: IFN-γ ELISPOT, Example 4 (PBL or TIL from cancer patients); assay type: cell-based, human
Experimental: To extend the sensitivity of the ELISPOT assay, PBL were stimulated once in vitro prior to analysis. At day 0, PBL or crushed lymph nodes were thawed and plated as 2×10^6 cells in 2 ml/well in 24-well plates (Nunc, Roskilde, Denmark) in x-vivo medium (Bio Whittaker, Walkersville, Md.), […] heat-inactivated human serum, and 2 mM of L-glutamine in the presence of 10 μM of peptide. Two days later 20 IU/ml recombinant interleukin-2 (IL-2) (Chiron, Ratingen, Germany) was added to the cultures. The cultured cells were tested for reactivity in the ELISPOT on day 10.
The ELISPOT assay was used to quantify peptide epitope-specific interferon-γ releasing effector cells as previously described (16). Briefly, nitrocellulose bottomed 96-well plates (MultiScreen MAIP N45, Millipore, Hedehusene, Denmark) were coated with anti-IFN-γ antibody (1-D1K, Mabtech, Nacka, Sweden). The wells were washed, blocked by X-vivo medium, and the cells were added in duplicates at different cell concentrations. The peptides were then added to each well and the plates were incubated overnight. The following day, media was discarded and the wells were washed prior to addition of biotinylated secondary antibody (7-B6-1-Biotin, Mabtech). The plates were incubated for 2 hours, washed, and avidin-alkaline phosphatase conjugate (Calbiochem, Life Technologies, Inc. San Diego, Calif., USA) was added to each well. The plates were incubated at room temperature for one hour, washed, and the enzyme substrate NBT/BCIP (DakoCytomation Norden A/S, Glostrup, Denmark) was added to each well and incubated at RT for 5-10 min. Upon the emergence of dark purple spots, the reaction was terminated by washing with tap-water. The spots were counted using the ImmunoSpot® Series 2.0 Analyzer (CTL Analyzers, LLC, Cleveland, US) and the peptide specific CTL frequency could be calculated from the numbers of spot-forming cells. All assays were performed in duplicates for each peptide antigen.

[3] = target: HLA-A3 (Homo sapiens, UniProt P04439); experiment: Assembly assay, HLA-A3; assay type: binding; conditions: for EC50: Table 4, HLA-A3, read-out: C50
Experimental: as §1

[4] = target: HLA-A11 (Homo sapiens, UniProt P04439, A114D/D185E/E176A/F33Y/L180Q/S129P/T187R); experiment: Assembly assay, HLA-A11; assay type: binding; conditions: for EC50: Table 4, HLA-A11, read-out: C50
Experimental: as §1

[5] = target: HLA-B7 (Homo sapiens, UniProt P01889); experiment: Assembly assay, HLA-B7; assay type: binding
Experimental: as §1
Binding of survivin derived peptides to HLA-B7 The amino acid sequence of the survivin protein was screened for peptides of nine to ten amino acids, with anchor residues according to the peptide binding motif of HLA-B7. Five peptides were selected and analyzed for their ability to stabilize HLA-B7 in the assembly assay. C50 values were estimated for each peptide as the peptide concentration needed for half maximal stabilization of HLA-B7 (table 4).

[6] = system: HLA-B35; experiment: Assembly assay, HLA-B35 (T2-B35 cells); assay type: binding, human; conditions: Example 3, Table 3
Excerpt: Briefly, the assay is based on peptide-mediated stabilization of empty HLA molecules released, upon cell lysis, from the TAP deficient cell line T2, stably transfected with HLA-B35 (kindly provided by Dr J. Haurum, Symphogen ApS, Lyngby, Denmark). Stably folded HLA-molecules were immunoprecipitated using the conformation-dependent mAb W6/32. The HLA molecules were separated by IEF electrophoresis, gels were exposed to phosphorimager screens (Imaging plate, FUJI photo film Co., LTD., Japan), analyzed and the amount of correctly folded HLA molecules were quantified using ImageGauge phosphorimager software (FUJI photo film Co., LTD., Japan).

[7] = HLA-A3, nine samples from melanoma patients (five PBL and four TIL)
[8] = Example 4, read-out: C50 (half maximal stabilization of HLA-B7)

- binding to HLA-A3, in words [3]: bound weakly
- binding to HLA-A11, in words [4]: high affinity
Molecule: CC(C)C[C@H](NC(=O)[C@@H](N)CC(=O)O)C(=O)N[C@@H](C)C(=O)N[C@@H](CCC(N)=O)C(=O)N[C@@H](CS)C(=O)N[C@@H](Cc1ccccc1)C(=O)N[C@@H](Cc1ccccc1)C(=O)N[C@@H](CS)C(=O)N[C@@H](Cc1ccccc1)C(=O)N[C@@H](CCCCN)C(=O)O [Sur 53-62]
- ELISPOT response [2, 7]: no immune responses
- ELISPOT response ([2]; HLA-A11, Mel.A11-1, five blood samples over two years, data not shown): strong immune response
- ELISPOT response ([2]; HLA-A11, PBL from Mel.A11-1 and Mel.A11-2): detect responses
- ELISPOT response ([2]; HLA-A11, TIL from tumor infiltrated lymph node, Mel.A11-2): able to detect Sur53-62 specific T-cells

- binding to HLA-A11, in words [4]: high affinity
Molecule: CC(C)C[C@H](N)C(=O)N[C@@H](C)C(=O)N[C@@H](CCC(N)=O)C(=O)N[C@@H](CS)C(=O)N[C@@H](Cc1ccccc1)C(=O)N[C@@H](Cc1ccccc1)C(=O)N[C@@H](CS)C(=O)N[C@@H](Cc1ccccc1)C(=O)N[C@@H](CCCCN)C(=O)O [Sur 54-62]

- binding to HLA-A3, in words [3]: high affinity
- EC50 [3]: 2000 nM
- binding to HLA-A11, in words [4]: high affinity
- EC50 [4]: 1000 nM
Molecule: CC[C@H](C)[C@H](NC(=O)[C@@H](N)CCCCN)C(=O)N[C@@H](C)C(=O)N[C@@H](CCCCN)C(=O)N[C@@H](CCC(=O)O)C(=O)N[C@H](C(=O)N[C@@H](CC(N)=O)C(=O)N[C@@H](CC(N)=O)C(=O)N[C@@H](CCCCN)C(=O)O)[C@@H](C)O [Sur 112-120]
- ELISPOT response [2, 7]: no immune responses

- binding to HLA-A3, in words [3]: high affinity
- EC50 [3]: 1000 nM
- binding to HLA-A11, in words [4]: bound weakly
- EC50 [4]: > 100000 nM
Molecule: CC[C@H](C)[C@H](NC(=O)[C@@H](N)CCCCN)C(=O)N[C@@H](C)C(=O)N[C@@H](CCCCN)C(=O)N[C@@H](CCC(=O)O)C(=O)N[C@H](C(=O)N[C@@H](CC(N)=O)C(=O)N[C@@H](CC(N)=O)C(=O)N[C@@H](CCCCN)C(=O)N[C@@H](CCCCN)C(=O)O)[C@@H](C)O [Sur 112-121]
- ELISPOT response [2, 7]: no immune responses

Further lines, the molecule ahead of its results:

Molecule: CC(C)C[C@H](NC(=O)[C@H](CCC(=O)O)NC(=O)[C@H](CCC(=O)O)NC(=O)[C@H](Cc1ccccc1)NC(=O)[C@@H](N)CCC(N)=O)C(=O)N[C@H](C(=O)N[C@@H](CC(C)C)C(=O)NCC(=O)N[C@@H](CCC(=O)O)C(=O)N[C@@H](Cc1ccccc1)C(=O)O)[C@@H](C)O [Sur92-101]
- binding to HLA-A1, in words [1]: bound with almost similar high affinity as a known positive control epitope
- EC50 [1]: 2000 nM
- ELISPOT response ([2]; HLA-A1, Mel.A1-2): showed responses
- ELISPOT response ([2]; HLA-A1, Mel.A1-3, PBL): T-cell response

Molecule: CC(C)C[C@H](NC(=O)[C@H](CCC(=O)O)NC(=O)[C@H](CCC(=O)O)NC(=O)[C@H](CO)NC(=O)[C@@H](N)CCC(N)=O)C(=O)N[C@H](C(=O)N[C@@H](CC(C)C)C(=O)NCC(=O)N[C@@H](CCC(=O)O)C(=O)N[C@@H](Cc1ccccc1)C(=O)O)[C@@H](C)O [Sur92S2]
- EC50 [1]: 100000 nM

Molecule: CC(C)C[C@H](NC(=O)[C@H](CCC(=O)O)NC(=O)[C@H](CCC(=O)O)NC(=O)[C@@H](NC(=O)[C@@H](N)CCC(N)=O)[C@@H](C)O)C(=O)N[C@H](C(=O)N[C@@H](CC(C)C)C(=O)NCC(=O)N[C@@H](CCC(=O)O)C(=O)N[C@@H](Cc1ccccc1)C(=O)O)[C@@H](C)O [Sur92T2]
- EC50 [1]: 2000 nM

Molecule: CC(C)C[C@H](NC(=O)[C@H](CCC(=O)O)NC(=O)[C@H](CCC(=O)O)NC(=O)[C@@H](N)Cc1ccccc1)C(=O)N[C@H](C(=O)N[C@@H](CC(C)C)C(=O)NCC(=O)N[C@@H](CCC(=O)O)C(=O)N[C@@H](Cc1ccccc1)C(=O)O)[C@@H](C)O [Sur93-101]
- binding to HLA-A1, in words [1]: low binding affinity
- EC50 [1]: > 100000 nM
- ELISPOT response ([2]; HLA-A1, ten melanoma patients, data not shown): no peptide-specific responses were detected

Molecule: CC(C)C[C@H](NC(=O)[C@H](CCC(=O)O)NC(=O)[C@H](CO)NC(=O)[C@@H](N)Cc1ccccc1)C(=O)N[C@H](C(=O)N[C@@H](CC(C)C)C(=O)NCC(=O)N[C@@H](CCC(=O)O)C(=O)N[C@@H](Cc1ccccc1)C(=O)O)[C@@H](C)O [Sur93S2]
- EC50 [1]: 30000 nM

Molecule: CC(C)C[C@H](NC(=O)[C@H](CCC(=O)O)NC(=O)[C@@H](NC(=O)[C@@H](N)Cc1ccccc1)[C@@H](C)O)C(=O)N[C@H](C(=O)N[C@@H](CC(C)C)C(=O)NCC(=O)N[C@@H](CCC(=O)O)C(=O)N[C@@H](Cc1ccccc1)C(=O)O)[C@@H](C)O [Sur93T2]
- binding to HLA-A1, in words [1]: bound with high affinity
- EC50 [1]: 1000 nM
- ELISPOT response ([2]; HLA-A1, Mel.A1-2): showed responses
- ELISPOT response ([2]; HLA-A1, Mel.A1-3, PBL): T-cell response
- ELISPOT response ([2]; HLA-A1, Mel.A1-4/PBL): responses were observed

Molecule: CPTENEPDL [Sur46-54]
- C50 (half maximal stabilization of HLA-B7) ([5]; Example 4): did not bind
- EC50 ([5]; Table 4, HLA-B7, read-out: C50): > 100000 nM

Molecule: ENEPDLAQCF [Sur49-58]
- binding to HLA-A1, in words [1]: non-binding

Molecule: EPDLAQCFF [Sur51-59]
- C50 (half maximal stabilization of HLA-B7) ([5]; Example 4): did not bind
- EC50 ([5]; Table 4, HLA-B7, read-out: C50): > 100000 nM

Molecule: LPPAWQPFL [Sur6-14]
- EC50 [5, 8]: > 100000 nM
- EC50 ([5]; Table 4, HLA-B7, read-out: C50): > 100000 nM

Molecule: QPFLKDHRI [Sur11-19]
- EC50 [5, 8]: > 100000 nM
- EC50 ([5]; Table 4, HLA-B7, read-out: C50): > 100000 nM
- C50 (half maximal recovery of HLA-B35) [6]: Not binding

Molecule: QPRAPIRPI [C6, reference compound]
- EC50 [5]: 100 nM

Molecule: RPPIFIRRL [C7, reference compound]
- EC50 [5]: 500 nM

Source: US20070148184A1, “Survivin-derived peptides and use thereof” (priority 2003, published 2007)
